Measurements from US9873704B2, “Heterocyclic compounds and their uses” (Amgen Inc., priority 2009, dated 2018).

What was measured:
murine model of asthma = settings: ovalbumin-induced airway inflammation; cited from earlier work
protein kinases = settings: cited from earlier work
p110δ = biological target: T1, p110δ (Homo sapiens, UniProt O00329); settings: cited from earlier work
T1 sequence (O00329 1-1044): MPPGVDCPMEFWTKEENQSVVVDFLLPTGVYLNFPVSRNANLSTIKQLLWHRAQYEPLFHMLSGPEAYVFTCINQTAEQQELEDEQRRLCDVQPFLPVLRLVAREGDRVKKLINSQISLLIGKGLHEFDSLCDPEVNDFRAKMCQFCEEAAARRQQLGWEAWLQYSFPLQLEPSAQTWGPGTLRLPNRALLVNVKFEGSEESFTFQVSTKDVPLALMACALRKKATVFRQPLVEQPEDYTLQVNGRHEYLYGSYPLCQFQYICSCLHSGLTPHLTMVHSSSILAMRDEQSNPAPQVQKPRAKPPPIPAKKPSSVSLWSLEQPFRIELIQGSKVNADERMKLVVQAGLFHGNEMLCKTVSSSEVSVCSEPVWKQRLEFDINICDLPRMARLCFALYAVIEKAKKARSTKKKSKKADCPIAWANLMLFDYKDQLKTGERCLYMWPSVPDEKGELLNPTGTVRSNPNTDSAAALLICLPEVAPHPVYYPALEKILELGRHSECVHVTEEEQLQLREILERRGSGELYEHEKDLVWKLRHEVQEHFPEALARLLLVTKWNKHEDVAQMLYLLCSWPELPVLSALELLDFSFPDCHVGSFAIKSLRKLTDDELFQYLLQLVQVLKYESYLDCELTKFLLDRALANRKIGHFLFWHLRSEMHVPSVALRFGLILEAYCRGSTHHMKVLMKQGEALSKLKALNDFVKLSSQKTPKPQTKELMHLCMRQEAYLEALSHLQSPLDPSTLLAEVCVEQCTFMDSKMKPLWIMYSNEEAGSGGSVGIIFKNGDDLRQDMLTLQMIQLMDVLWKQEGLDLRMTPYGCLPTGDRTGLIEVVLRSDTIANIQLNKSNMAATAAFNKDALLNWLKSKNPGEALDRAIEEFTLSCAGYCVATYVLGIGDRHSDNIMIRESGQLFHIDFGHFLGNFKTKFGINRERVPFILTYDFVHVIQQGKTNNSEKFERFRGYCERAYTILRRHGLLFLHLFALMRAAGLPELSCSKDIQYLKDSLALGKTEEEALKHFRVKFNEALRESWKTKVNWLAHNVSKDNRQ

PI3Kδ = biological target: T2, PI3Kδ (Homo sapiens, UniProt O00329); assay: PI3Kδ Alphascreen assay; format: biochemical
T2 construct: Full length p110 subunits of PI3k α, β and δ, N-terminally labeled with polyHis tag; polyHis (N); made in house; host or cells: Sf9 insect cells (baculovirus)
Protocol: Full length p110 subunits of PI3k α, β and δ, N-terminally labeled with polyHis tag, were coexpressed with p85 with Baculo virus expression vectors in sf9 insect cells. P110/p85 heterodimers were purified by sequential Ni-NTA, Q-HP, Superdex-100 chromatography. Purified α, β and δ isozymes were stored at −20° C. in 20 mM Tris, pH 8, 0.2M NaCl, 50% glycerol, 5 mM DTT, 2 mM Na cholate. […] The γ isozyme was purified by sequential Ni-NTA, Superdex-200, Q-HP chromatography. The γ isozyme was stored frozen at −80° C. in NaH2PO4, pH 8, 0.2M NaCl, 1% ethylene glycol, 2 mM β-mercaptoethanol.
A PI3K Alphascreen® assay (PerkinElmer, Waltham, Mass.) was used to measure the activity of a panel of four phosphoinositide 3-kinases: PI3Kα, PI3Kβ, PI3Kγ, and PI3Kδ. Enzyme reaction buffer was prepared using sterile water (Baxter, Deerfield, Ill.) and 50 mM Tris HCl pH 7, 14 mM MgCl2, 2 mM sodium cholate, and 100 mM NaCl. 2 mM DTT was added fresh the day of the experiment. The Alphascreen buffer was made using sterile water and 10 mM Tris HCl pH 7.5, 150 mM NaCl, 0.10% Tween 20, and 30 mM EDTA. 1 mM DTT was added fresh the day of the experiment. Compound source plates used for this assay were 384-well Greiner clear polypropylene plates containing test compounds at 5 mM and diluted 1:2 over 22 concentrations. Columns 23 and 24 contained only DMSO as these wells comprised the positive and negative controls, respectively. Source plates were replicated by transferring 0.5 uL per well into 384-well Optiplates (PerkinElmer, Waltham, Mass.).
Each PI3K isoform was diluted in enzyme reaction buffer to 2× working stocks. […] PI(4,5)P2 (Echelon Biosciences, Salt Lake City, Utah) was diluted to 10 μM and ATP was diluted to 20 μM. This 2× stock was used in the assays for PI3Kα and PI3Kβ. For assay of PI3Kγ and PI3Kδ, PI(4,5)P2 was diluted to 10 μM and ATP was diluted to 8 μM to prepare a similar 2× working stock. Alphascreen reaction solutions were made using beads from the anti-GST Alphascreen kit (PerkinElmer, Waltham, Mass.). Two 4× working stocks of the Alphascreen reagents were made in Alphascreen reaction buffer. In one stock, biotinylated-IP4 (Echelon Biosciences, Salt Lake City, Utah) was diluted to 40 nM and streptavidin-donor beads were diluted to 80 μg/mL. In the second stock, PIP3-binding protein (Echelon Biosciences, Salt Lake City, Utah) was diluted to 40 nM and anti-GST-acceptor beads were diluted to 80 μg/mL.
10 μL/well of the appropriate substrate 2× stock (containing 20 μM ATP for the PI3Kα and β assays and containing 8 μM ATP for the PI3Kγ and δ assays) was then added to Columns 1-24 of all plates. Plates were then incubated at room temperature for 20 minutes. In the dark, 10 μL/well of the donor bead solution was added to columns 1-24 of the plates to quench the enzyme reaction. The plates were incubated at room temperature for 30 minutes. Still in the dark, 10 μL/well of the acceptor bead solution was added to columns 1-24 of the plates. The plates were then incubated in the dark for 1.5 hours. The plates were read on an Envision multimode Plate Reader (PerkinElmer, Waltham, Mass.) using a 680 nm excitation filter and a 520-620 nm emission filter.

[1] = tested on: model of systemic lupus erythematosis; settings: in vivo; cited from earlier work
[2] = tested on: mouse model of rheumatoid arthritis; settings: in vivo; cited from earlier work

T2 sequence (P27986 whole entry partner, one chain of several): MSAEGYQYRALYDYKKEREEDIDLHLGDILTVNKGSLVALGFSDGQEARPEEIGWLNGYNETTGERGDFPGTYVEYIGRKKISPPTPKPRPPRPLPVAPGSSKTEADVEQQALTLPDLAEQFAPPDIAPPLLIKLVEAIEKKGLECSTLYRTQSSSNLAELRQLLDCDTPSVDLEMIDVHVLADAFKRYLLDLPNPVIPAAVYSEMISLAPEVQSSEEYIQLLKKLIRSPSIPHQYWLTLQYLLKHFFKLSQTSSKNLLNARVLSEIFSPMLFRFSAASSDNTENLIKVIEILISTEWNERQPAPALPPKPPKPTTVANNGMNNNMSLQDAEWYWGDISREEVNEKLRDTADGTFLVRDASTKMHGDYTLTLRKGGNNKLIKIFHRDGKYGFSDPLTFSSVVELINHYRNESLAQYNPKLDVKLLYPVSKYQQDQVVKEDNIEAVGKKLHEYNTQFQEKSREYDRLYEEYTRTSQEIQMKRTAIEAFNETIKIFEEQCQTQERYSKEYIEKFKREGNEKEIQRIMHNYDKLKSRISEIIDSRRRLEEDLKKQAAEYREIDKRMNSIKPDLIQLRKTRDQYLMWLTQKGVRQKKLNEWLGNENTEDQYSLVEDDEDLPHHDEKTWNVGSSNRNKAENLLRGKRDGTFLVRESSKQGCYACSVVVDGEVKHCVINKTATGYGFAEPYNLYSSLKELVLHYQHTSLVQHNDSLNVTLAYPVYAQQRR

| Structure (SMILES) | Ki (PI3Kδ) | also measured |
| --- | --- | --- |
| Cc1ccccc1-n1c(Cn2cnc3c(N)ncnc32)nc2cccc(C)c2c1=O [IC87114] | – | inflammation and disease in a murine model of asthma (murine model of asthma): significantly ameliorate inflammation and disease; activity against any protein kinases tested (protein kinases): no activity; inhibits p110δ (p110δ): high nanomolar range (triple digit) |
| COC1CN(C(=O)c2c(-c3ccccc3)c(C(C)Nc3ncnc(N)c3C#N)nc3ccc(F)cc23)C1 (stereo not shown) [4-Amino-6-((1-(6-fluoro-4-((3-methoxy-1-azetidinyl)carbonyl)-3-phenyl-2-quinolinyl)ethyl)amino)-5-pyrimidinecarbonitrile] | 1.75 nM | – |
| CC(Nc1ncnc(N)c1C#N)c1nc2ccc(F)cc2c(CN2CCOCC2)c1-c1ccccc1 (stereo not shown) [4-amino-6-((-1-(6-fluoro-4-(4-morpholinylmethyl)-3-phenyl-2-quinolinyl)ethyl)amino)-5-pyrimidinecarbonitrile] | 1.31 nM | – |
| C[C@H](c1nc2ccc(F)cc2cc1-c1cncc(F)c1)n1nc(C#N)c2c(N)ncnc21 [4-amino-1-((R)-1-(6-fluoro-3-(5-fluoropyridin-3-yl)quinolin-2-yl)ethyl)-1H-pyrazolo[3,4-d]pyrimidine-3-carbonitrile] | 5470 nM | – |
| CC(Nc1ncnc(N)c1C#N)c1nc2ccc(F)cc2c(N(C)C)c1-c1ccccn1 (stereo not shown) [4-amino-6-(1-(4-(dimethylamino)-6-fluoro-3-(pyridin-2-yl)quinolin-2-yl)ethylamino)pyrimidine-5-carbonitrile] | 1.4 nM | – |
| N#Cc1c(N)ncnc1NCc1nc2cccc(F)c2cc1-c1ccccc1 [4-Amino-6-((5-fluoro-3-phenylquinolin-2-yl)methylamino)pyrimidine-5-carbonitrile] | 107 nM | – |
| CC(Nc1ncnc(N)c1C#N)c1nc2ccc(F)cc2c([S+]([O-])CCO)c1-c1ccccc1 (stereo in doubt) [4-Amino-6-(1-(6-fluoro-4-((R)-2-hydroxyethylsulfinyl)-3-phenylquinolin-2-yl)ethylamino)pyrimidine-5-carbonitrile] | 2.48 nM | – |
| CC(Nc1ncnc2[nH]cnc12)c1nc2ccc(F)cc2cc1-c1ccccn1 (racemic) [N-(1-(6-Fluoro-3-(pyridin-2-yl)quinolin-2-yl)ethyl)-9H-purin-6-amine] | 21.3 nM | – |
| COC(=O)c1c(-c2ccccc2)c(C(C)Nc2ncnc(N)c2C#N)nc2ccc(F)cc12 (stereo not shown) [Methyl 2-(1-(6-amino-5-cyanopyrimidin-4-ylamino)ethyl)-6-fluoro-3-phenylquinoline-4-carboxylate] | 1.56 nM | – |
| CC(Nc1ncnc(N)c1C#N)c1nc2ccncc2cc1-c1ccccn1 (racemic) [4-Amino-6-(((1S, 1R)-1-(3-(2-pyridinyl)-1,6-naphthyridin-2-yl)ethyl)amino)-5-pyrimidinecarbonitrile] | 470 nM | – |
| CC(Nc1ncnc(N)c1C#N)c1nc2ccc(F)cc2c(CS(C)(=O)=O)c1-c1ccccc1 (stereo not shown) [4-Amino-6-(1-(6-fluoro-4-(methylsulfonylmethyl)-3-phenylquinolin-2-yl)-ethylamino)pyrimidine-5-carbonitrile] | 1.38 nM | – |
| CC(Nc1ncnc(N)c1C#N)c1nc2cccc(Cl)c2cc1-c1ccccn1 [4-amino-6-(((1S, 1R)-1-(5-chloro-3-(2-pyridinyl)-2-quinolinyl)ethyl)-amino)-5-pyrimidinecarbonitrile] | 1.6 nM | – |
| CC(Nc1ncnc(N)c1C(N)=O)c1nc2ccc(F)cc2c(C(=O)O)c1-c1ccccc1 (stereo not shown) [2-(1-(6-amino-5-carbamoylpyrimidin-4-ylamino)ethyl)-6-fluoro-3-phenylquinoline-4-carboxylic acid] | 7.16 nM | – |
| N#Cc1c(N)ncnc1NCc1nc2cccc(F)c2cc1-c1cccc(F)c1 [4-Amino-6-((5-fluoro-3-(3-fluorophenyl)quinolin-2-yl)methylamino)pyrimidine-5-carbonitrile] | 102 nM | – |
| O=C1NC(=O)/C(=C\c2ccc3nccnc3c2)S1 [AS 605240] | – | onset of disease in a model of systemic lupus erythematosis [1]: delay onset of disease; efficacy in a mouse model of rheumatoid arthritis [2]: efficacious |
| C[C@@H](Nc1ncnc(N)c1C#N)c1nc2cccc(Cl)c2cc1-c1ccccn1 [4-amino-6-(((1R)-1-(5-chloro-3-(2-pyridinyl)-2-quinolinyl)ethyl)amino)-5-pyrimidinecarbonitrile] | 57.9 nM | – |
